Results published in patent US20240116985A1, “STAPLED PEPTIDES AND METHODS THEREOF” (priority 2020, published 2024).

Biological target: T1, full-length beta-Catenin (Uniprot ID P35222) (Homo sapiens, UniProt P35222)
T1 construct: 10 nM full-length beta-Catenin (Uniprot ID P35222)
T1 sequence (P35222 1-781): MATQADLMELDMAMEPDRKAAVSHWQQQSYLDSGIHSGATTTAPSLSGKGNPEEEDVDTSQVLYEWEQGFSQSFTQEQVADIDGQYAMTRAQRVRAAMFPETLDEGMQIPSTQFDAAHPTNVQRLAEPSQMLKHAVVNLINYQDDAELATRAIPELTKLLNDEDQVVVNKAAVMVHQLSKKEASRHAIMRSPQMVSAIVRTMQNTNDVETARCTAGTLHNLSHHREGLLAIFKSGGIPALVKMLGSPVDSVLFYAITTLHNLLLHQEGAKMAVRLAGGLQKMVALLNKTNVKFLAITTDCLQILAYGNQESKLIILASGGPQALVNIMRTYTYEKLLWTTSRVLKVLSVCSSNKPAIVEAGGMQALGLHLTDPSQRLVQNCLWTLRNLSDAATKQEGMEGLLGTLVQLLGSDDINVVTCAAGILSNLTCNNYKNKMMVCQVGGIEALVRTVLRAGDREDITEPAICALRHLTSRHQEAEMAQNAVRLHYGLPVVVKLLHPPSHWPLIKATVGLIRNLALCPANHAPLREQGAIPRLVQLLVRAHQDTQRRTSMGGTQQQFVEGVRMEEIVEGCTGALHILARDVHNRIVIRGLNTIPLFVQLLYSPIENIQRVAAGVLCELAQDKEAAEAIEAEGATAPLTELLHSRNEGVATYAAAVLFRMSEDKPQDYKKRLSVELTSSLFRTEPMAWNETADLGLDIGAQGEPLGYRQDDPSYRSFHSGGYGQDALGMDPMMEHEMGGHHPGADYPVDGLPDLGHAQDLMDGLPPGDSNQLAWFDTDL
Assay: Fluorescence polarization IC50 (beta-catenin / 5FAM-TCF4 10-53 competition)
Assay type: binding
Conditions: beta-Catenin FP IC50 (nM), fluorescence polarization

Question: How did the IC50 turn out when `C[C@@H]1NC(=O)[C@H](C)NC(=O)[C@H](CC(=O)O)NC(=O)[C@H](CC(=O)O)NC(=O)C2(CCCC=CCCCOC(=O)N3CC[C@@](C(=O)N[C@@H](Cc4ccsc4)C(=O)N[C@@H](Cc4csc5ccccc45)C(=O)N[C@@H](Cc4c[nH]cn4)C(N)=O)(C3)NC(=O)[C@H](CCC(N)=O)NC(=O)[C@H](Cc3ccccc3)NC1=O)CCCC=CC[C@]1(CCCN1C(=O)Oc1ccccc1)C(=O)N[C@@H](CC(=O)O)C(=O)N[C@@H](CC(C)(C)C)C(=O)N2` (stereo partly drawn) [I-2326, CO2Ph-PL3-Asp-Npg-B5-Asp-Asp-Ala-Ala-Phe-Gln-PyrS2-3Thi-BztA-His-NH2] was run?
Answer: 185 nM

Question: For `CC(C)C[C@@H]1NC(=O)[C@H](Cc2ccccc2)NC(=O)[C@H](C)NC(=O)[C@H](C)NC(=O)[C@H](Cc2cccc(C(=O)O)c2)NC(=O)[C@H](CC(=O)O)NC(=O)C2(CCCC=CCCCOC(=O)N3CC[C@@](C(=O)N[C@@H](Cc4ccccc4Cl)C(=O)N[C@@H](Cc4csc5ccccc45)C(=O)N[C@@H](C)C(N)=O)(C3)NC1=O)CCCC=CC[C@]1(CCCN1C(=O)Oc1ccccc1)C(=O)N[C@@H](CC(=O)O)C(=O)N[C@@H](CC(C)(C)C)C(=O)N2` (stereo partly drawn) [I-2327, CO2Ph-PL3-Asp-Npg-B5-Asp-3COOHF-Ala-Ala-Phe-Leu-PyrS2-2C1F-BztA-Ala-NH2], which IC50 is on record?
Answer: 376 nM

Same assay, conditions: fluorescence polarization; read-out: beta-Catenin FP IC50

Question: With `CC(=O)N1CCC[C@]12CC=CCCCC1(CCCC=CCCCOC(=O)N3CC[C@@](C(=O)N[C@@H](Cc4ccsc4)C(=O)N[C@@H](Cc4csc5ccccc45)C(=O)N[C@@H](CCC(N)=O)C(N)=O)(C3)NC(=O)[C@H](CC(N)=O)NC(=O)[C@H](Cc3ccccc3)NC(=O)[C@H](C)NC(=O)[C@H](C)NC(=O)[C@H](CC(=O)O)NC(=O)[C@H](CC(=O)O)NC1=O)NC(=O)[C@H](CC(C)(C)C)NC(=O)[C@H](Cn1cc(CC(C)(C)C(=O)O)nn1)NC2=O` (stereo partly drawn) [I-2329, Ac-PL3-[CH2CMe2CO2H]TriAzDap-Npg-B5-Asp-Asp-Ala-Ala-Phe-Asn-PyrS2-3Thi-BztA-Gln-NH2] as the compound, how does the IC50 read?
Answer: 3800 nM

Question: `CC(=O)N1CCC[C@]12CC=CCCCC1(CCCC=CCCCOC(=O)N3CC[C@@](C(=O)N[C@@H](Cc4ccsc4)C(=O)N[C@@H](Cc4csc5ccccc45)C(=O)N[C@@H](CCC(N)=O)C(N)=O)(C3)NC(=O)[C@H](CC(N)=O)NC(=O)[C@H](Cc3ccccc3)NC(=O)[C@H](C)NC(=O)[C@H](C)NC(=O)[C@H](CC(=O)O)NC(=O)[C@H](CC(=O)O)NC1=O)NC(=O)[C@H](CC(C)(C)C)NC(=O)[C@H](Cn1cc(C(C)(C)C(=O)O)nn1)NC2=O` (stereo partly drawn) [I-2330, Ac-PL3-[CMe2CO2H]TriAzDap-Npg-B5-Asp-Asp-Ala-Ala-Phe-Asn-PyrS2-3Thi-BztA-Gln-NH2] was tested. Which IC50 did it give?
Answer: 3860 nM

Question: With `CC(=O)N1CCC[C@]12CC=CCCCC1(CCCC=CCCCOC(=O)N3CC[C@@](C(=O)N[C@@H](Cc4ccsc4)C(=O)N[C@@H](Cc4csc5ccccc45)C(=O)N[C@@H](C)C(N)=O)(C3)NC(=O)[C@H]([C@@H](C)O)NC(=O)[C@H](Cc3ccccc3)NC(=O)[C@H](C)NC(=O)[C@H](C)NC(=O)[C@H]([C@@H](C)O)NC(=O)[C@H](CC(N)=O)NC1=O)NC(=O)[C@H](CC(C)(C)C)NC(=O)[C@H](CC(=O)O)NC2=O` (stereo partly drawn) [I-2334, Ac-PL3-Asp-Npg-B5-Asn-Thr-Ala-Ala-Phe-Thr-PyrS2-3Thi-BztA-Ala-NH2] as the compound, how does the IC50 read?
Answer: 656 nM

Question: How did the IC50 turn out when `CC(=O)N1CCC[C@]12CC=CCCCC1(CCCC=CCCCOC(=O)N3CC[C@@](C(=O)N[C@@H](Cc4ccsc4)C(=O)N[C@@H](Cc4csc5ccccc45)C(=O)N[C@@H](CCC(N)=O)C(N)=O)(C3)NC(=O)[C@H](CC(N)=O)NC(=O)[C@H](Cc3ccccc3)NC(=O)[C@H](C)NC(=O)[C@H](C)NC(=O)[C@H](Cc3cccc(C(=O)O)c3)NC(=O)[C@H](CC(N)=O)NC1=O)NC(=O)[C@H](CC(C)(C)C)NC(=O)[C@H](CC(=O)O)NC2=O` (stereo partly drawn) [I-2335, Ac-PL3-Asp-Npg-B5-Asn-3COOHF-Ala-Ala-Phe-Asn-PyrS2-3Thi-BztA-Gln-NH2] was run?
Answer: 7 nM

Question: With `CC(=O)N1CCC[C@]12CC=CCCCC1(CCCC=CCCCOC(=O)N3CC[C@@](C(=O)N[C@@H](Cc4ccsc4)C(=O)N[C@@H](Cc4csc5ccccc45)C(=O)N[C@@H](Cc4c[nH]cn4)C(N)=O)(C3)NC(=O)[C@H]([C@@H](C)O)NC(=O)[C@H](Cc3ccccc3)NC(=O)[C@H](C)NC(=O)[C@H](C)NC(=O)[C@H]([C@@H](C)O)NC(=O)[C@H](CC(N)=O)NC1=O)NC(=O)[C@H](CC(C)(C)C)NC(=O)[C@H](CC(=O)O)NC2=O` (stereo partly drawn) [I-2337, Ac-PL3-Asp-Npg-B5-Asn-Thr-Ala-Ala-Phe-Thr-PyrS2-3Thi-BztA-His-NH2] as the compound, how does the IC50 read?
Answer: 311 nM

Question: `CC(=O)N1CCC[C@]12CC=CCCCC1(CCCC=CCCCOC(=O)N3CC[C@@](C(=O)N[C@@H](Cc4ccsc4)C(=O)N[C@@H](Cc4csc5ccccc45)C(=O)N[C@@H](CCC(N)=O)C(N)=O)(C3)NC(=O)[C@H](CC(N)=O)NC(=O)[C@H](Cc3ccccc3)NC(=O)C(C)(C)NC(=O)[C@H](C)NC(=O)[C@H]([C@@H](C)O)NC(=O)[C@H](CC(N)=O)NC1=O)NC(=O)[C@H](CC(C)(C)C)NC(=O)[C@H](CC(=O)O)NC2=O` (stereo partly drawn) [I-2339, Ac-PL3-Asp-Npg-B5-Asn-Thr-Ala-Aib-Phe-Asn-PyrS2-3Thi-BztA-Gln-NH2] was tested. Which IC50 did it give?
Answer: 2820 nM

Question: With `CC(=O)N1CCC[C@]12CC=CCCCC1(CCCC=CCCCOC(=O)N3CC[C@@](C(=O)N[C@@H](Cc4ccccc4)C(=O)N[C@@H](Cc4csc5ccccc45)C(=O)N[C@@H](CCC(N)=O)C(N)=O)(C3)NC(=O)[C@H](CC(C)C)NC(=O)[C@H](Cc3ccccc3)NC(=O)[C@H](C)NC(=O)[C@H](CCCCNC(C)C)NC(=O)[C@H](Cc3cccc(C(N)=O)c3)NC(=O)[C@H](CC(=O)O)NC1=O)NC(=O)[C@H](CC1CCCCC1)NC(=O)[C@H](CC(N)=O)NC2=O` (stereo partly drawn) [I-2342, Ac-PL3-Asn-Cha-B5-Asp-3cbmf-iPrLys-Ala-Phe-Leu-PyrS2-Phe-BztA-Gln-NH2] as the compound, how does the IC50 read?
Answer: 2730 nM

Question: With `CC(=O)N1CCC[C@]12CC=CCCCC1(CCCC=CCCCOC(=O)N3CC[C@@](C(=O)N[C@@H](Cc4ccccc4)C(=O)N[C@@H](Cc4csc5ccccc45)C(=O)N[C@@H](CCC(N)=O)C(N)=O)(C3)NC(=O)[C@H](CC(C)C)NC(=O)[C@H](Cc3ccccc3)NC(=O)[C@H](C)NC(=O)[C@H](CCCCNC(C)C)NC(=O)[C@H](CCO)NC(=O)[C@H](CC(=O)O)NC1=O)NC(=O)[C@H](CC1CCCCC1)NC(=O)[C@H](CC(N)=O)NC2=O` (stereo partly drawn) [I-2344, Ac-PL3-Asn-Cha-B5-Asp-Hse-iPrLys-Ala-Phe-Leu-PyrS2-Phe-BztA-Gln-NH2] as the compound, how does the IC50 read?
Answer: 586 nM

Question: How did the IC50 turn out when `CC(=O)N1CCC[C@]12CC=CCCCC1(CCCC=CCCCOC(=O)N3CC[C@@](C(=O)N[C@@H](Cc4ccccc4)C(=O)N[C@@H](Cc4csc5ccccc45)C(=O)N[C@@H](CCC(N)=O)C(N)=O)(C3)NC(=O)[C@H](CC(C)C)NC(=O)[C@H](Cc3ccccc3)NC(=O)[C@H](C)NC(=O)[C@H](CCCCNC(C)C)NC(=O)[C@H](CCO)NC(=O)[C@H](CC(=O)O)NC1=O)NC(=O)[C@H](CC1CCCCC1)NC(=O)[C@H](CC(N)=O)NC2=O` (stereo partly drawn) [I-2345, Ac-PL3-Asn-Cha-B5-Asp-Hse-iPrLys-Ala-Phe-Leu-PyrS2-Phe-BztA-Gln-NH2] was run?
Answer: 1270 nM

Question: With `CC(=O)N1CCC[C@]12CC=CCCCC1(CCCC=CCCCOC(=O)N3CC[C@@](C(=O)N[C@@H](Cc4ccccc4)C(=O)N[C@@H](Cc4csc5ccccc45)C(=O)N[C@@H](CCC(N)=O)C(N)=O)(C3)NC(=O)[C@H](CC(C)C)NC(=O)[C@H](Cc3ccccc3)NC(=O)[C@H](C)NC(=O)[C@H](CCCCNC(C)C)NC(=O)[C@H](CCCCN)NC(=O)[C@H](CC(=O)O)NC1=O)NC(=O)[C@H](CC1CCCCC1)NC(=O)[C@H](CC(N)=O)NC2=O` (stereo partly drawn) [I-2346, Ac-PL3-Asn-Cha-B5-Asp-Lys-iPrLys-Ala-Phe-Leu-PyrS2-Phe-BztA-Gln-NH2] as the compound, how does the IC50 read?
Answer: 422 nM

Question: `CC(=O)N1CCC[C@]12CC=CCCCC1(CCCC=CCCCOC(=O)N3CC[C@@](C(=O)N[C@@H](Cc4ccccc4)C(=O)N[C@@H](Cc4csc5ccccc45)C(=O)N[C@@H](CCC(N)=O)C(N)=O)(C3)NC(=O)[C@H](CC(C)C)NC(=O)[C@H](Cc3ccccc3)NC(=O)[C@H](C)NC(=O)[C@H](CCCCNC(C)C)NC(=O)[C@H](CCCCN)NC(=O)[C@H](CC(=O)O)NC1=O)NC(=O)[C@H](CC1CCCCC1)NC(=O)[C@H](CC(N)=O)NC2=O` (stereo partly drawn) [I-2347, Ac-PL3-Asn-Cha-B5-Asp-Lys-iPrLys-Ala-Phe-Leu-PyrS2-Phe-BztA-Gln-NH2] was tested. Which IC50 did it give?
Answer: 5630 nM

Question: `CC(=O)N1CCC[C@]12CC=CCCCC1(CCCC=CCCCOC(=O)N3CC[C@@](C(=O)N[C@@H](Cc4ccccc4)C(=O)N[C@@H](Cc4csc5ccccc45)C(=O)N[C@@H](CCC(N)=O)C(N)=O)(C3)NC(=O)[C@H](CC(C)C)NC(=O)[C@H](Cc3ccccc3)NC(=O)[C@H](C)NC(=O)[C@H](CCCCNC(C)C)NC(=O)[C@H](Cc3c[nH]cn3)NC(=O)[C@H](CC(=O)O)NC1=O)NC(=O)[C@H](CC1CCCCC1)NC(=O)[C@H](CC(N)=O)NC2=O` (stereo partly drawn) [I-2348, Ac-PL3-Asn-Cha-B5-Asp-His-iPrLys-Ala-Phe-Leu-PyrS2-Phe-BztA-Gln-NH2] was tested. Which IC50 did it give?
Answer: 179 nM
